The supplement of paper PMC13380429

Tests used:
Settings in all cases: 72 h
[1] = test system: HepG2; assay: drug sensitivity score (DSS) for viability; higher = more toxic; extreme values may be limits of the assay
[2] = test system: Caco-2; assay: as above
[3] = test system: Vero E6; assay: as above
[4] = test system: Calu-3; assay: as above
[5] = test system: U2OS; assay: as above
[6] = test system: HepG2; assay: cell viability relative to DMSO; higher = less toxic
[7] = test system: Caco-2; assay: as above
[8] = test system: Vero E6; assay: as above
[9] = test system: Calu-3; assay: as above
[10] = test system: U2OS; assay: as above
[11] = test system: Caco-2; assay: relative viability EC50 (midpoint between 100% and the lowest measured viability); higher = less toxic
[12] = test system: Vero E6; assay: as above
[13] = test system: Calu-3; assay: as above
[14] = test system: U2OS; assay: as above
[15] = test system: HepG2; assay: as above

| Compound | drug sensitivity score [1] | drug sensitivity score [2] | drug sensitivity score [3] | drug sensitivity score [4] | drug sensitivity score [5] | cell viability ([6]; 1 nM) [%] | cell viability ([6]; 10 nM) [%] | cell viability ([6]; 100 nM) [%] | cell viability ([6]; 1000 nM) [%] | cell viability ([6]; 10000 nM) [%] | cell viability ([7]; 1 nM) [%] | cell viability ([7]; 10 nM) [%] | cell viability ([7]; 100 nM) [%] | cell viability ([7]; 1000 nM) [%] | cell viability ([7]; 10000 nM) [%] | cell viability ([8]; 1 nM) [%] | cell viability ([8]; 10 nM) [%] | cell viability ([8]; 100 nM) [%] | cell viability ([8]; 1000 nM) [%] | cell viability ([8]; 10000 nM) [%] | cell viability ([9]; 1 nM) [%] | cell viability ([9]; 10 nM) [%] | cell viability ([9]; 100 nM) [%] | cell viability ([9]; 1000 nM) [%] | cell viability ([9]; 10000 nM) [%] | cell viability ([10]; 1 nM) [%] | cell viability ([10]; 10 nM) [%] | cell viability ([10]; 100 nM) [%] | cell viability ([10]; 1000 nM) [%] | cell viability ([10]; 10000 nM) [%] | relative viability EC50 [11] [µM] | relative viability EC50 [12] [µM] | relative viability EC50 [13] [µM] | relative viability EC50 [14] [µM] | relative viability EC50 [15] [µM] |
| --- | --- | --- | --- | --- | --- | --- | --- | --- | --- | --- | --- | --- | --- | --- | --- | --- | --- | --- | --- | --- | --- | --- | --- | --- | --- | --- | --- | --- | --- | --- | --- | --- | --- | --- | --- |
| COc1oc(=O)c2cc(N)ccc2c1Cl [JLK-6] | 0.8 | 1.5 | 0 | 1.1 | 0 | 96.6 | 113 | 103 | 105 | 73.1 | 99.2 | 94.6 | 96.1 | 95.4 | 76.6 | 108 | 104 | 100 | 104 | 93.8 | 103 | 105 | 106 | 94.9 | 80.9 | 99.7 | 98.2 | 99.1 | 99.4 | 91.7 | > 10 | > 10 | > 10 | > 10 | – |
| CCc1nc(N)nc(N)c1-c1ccc(Cl)cc1 [pyrimethamine] | 1.6 | – | 2 | 0 | 0 | 108 | 91.5 | 102 | 93.2 | 77.9 | – | – | – | – | – | 96.3 | 93 | 103 | 99.9 | 60.7 | 101 | 111 | 101 | 99 | 107 | 100 | 108 | 99.8 | 102 | 96.8 | – | – | > 10 | > 10 | > 10 |
| Cn1cc(-c2cnc3ccc4ccc(CS(=O)(=O)NCc5ccccn5)cc4c(=O)c3c2)cn1 [MK-8033] | 3.2 | 1.2 | 0 | 0 | 0 | 113 | 93.3 | 110 | 95.3 | 53.8 | 96.4 | 95.6 | 91.8 | 97.9 | 75.1 | 104 | 98.8 | 104 | 99.4 | 97.7 | 99.8 | 87.8 | 105 | 94.5 | 99.9 | 97.6 | 98.7 | 98.7 | 101 | 91.7 | > 10 | > 10 | > 10 | > 10 | – |
| CC(=C(CCOC(=O)C(C)C)SSC(CCOC(=O)C(C)C)=C(C)N(C=O)Cc1cnc(C)nc1N)N(C=O)Cc1cnc(C)nc1N (stereo in doubt) [sulbutiamine] | 0 | 1.2 | 0 | 0 | 0 | 101 | 84.5 | 112 | 95.3 | 97.4 | 90.8 | 105 | 70.2 | 98.5 | 81.8 | 100 | 84.3 | 98.7 | 89.2 | 95.1 | 109 | 111 | 112 | 105 | 89.1 | 101 | 106 | 105 | 101 | 92.8 | – | > 10 | > 10 | > 10 | > 10 |
| Clc1ccc(CSC(Cn2ccnc2)c2ccc(Cl)cc2Cl)cc1 (stereo not drawn) [sulconazole] | 0 | 2.7 | 0 | 0 | 0 | 86.9 | 87.4 | 102 | 99.1 | 98.1 | 99.5 | 92.7 | 97.3 | 94 | 63.5 | 106 | 104 | 104 | 95.4 | 94.6 | 107 | 95.5 | 102 | 110 | 96.7 | 97.5 | 101 | 96 | 101 | 93.7 | – | > 10 | > 10 | > 10 | > 10 |
| Oc1c(I)cc(I)c2cccnc12 [iodoquinol] | 3.5 | 2.4 | 1.5 | 0 | 0.4 | 109 | 99 | 93.7 | 99.9 | 36.1 | 107 | 94.3 | 97.1 | 96.3 | 63.1 | 100 | 106 | 100 | 99.8 | 68.1 | 106 | 98.6 | 99.7 | 93.4 | 98.4 | 104 | 100 | 102 | 98.5 | 85.2 | – | – | > 10 | > 10 | 3.15 |
| CCCCCCCCCCCCOCCOCCOCCOCCOCCOCCOCCOCCOCCO [polidocanol] | 3.3 | 1 | 0 | 0 | 0 | 105 | 98.5 | 124 | 111 | 28.9 | 85.7 | 105 | 99.9 | 108 | 69.7 | 99.5 | 89.7 | 104 | 108 | 116 | 106 | 105 | 99.6 | 106 | 91.5 | 91.5 | 103 | 95.4 | 101 | 90.4 | – | > 10 | > 10 | > 10 | 3.8 |
| c1cc(OCCN2CCCCC2)cc(-c2n[nH]c3ccc(-c4nnc[nH]4)cc23)c1 [CC-401] | 2.9 | 0 | 0 | 0 | 0 | 94.5 | 96.7 | 88.4 | 90.7 | 61.5 | 101 | 95.7 | 95.5 | 97.3 | 106 | 101 | 98 | 101 | 103 | 95.2 | 104 | 89.2 | 96 | 95.2 | 122 | 101 | 96.4 | 100 | 94.1 | 93.4 | > 10 | > 10 | > 10 | > 10 | – |
| Nc1nc(=O)[nH]cc1F [flucytosine] | 0 | 0 | – | 0 | 0 | 101 | 110 | 97.6 | 109 | 110 | 97.6 | 94 | 100 | 96.5 | 92.9 | – | – | – | – | – | 87.6 | 102 | 99.9 | 91.1 | 111 | 98.6 | 99.2 | 102 | 97.9 | 104 | > 10 | – | > 10 | > 10 | > 10 |
| Nc1ccc(F)cc1NC(=O)c1ccc(CNC(=O)/C=C/c2cccnc2)cc1 [chidamide] | 7.4 | 4.1 | 1.4 | 10.7 | 8.4 | 97.6 | 105 | 91.4 | 69.4 | 28.1 | 95.3 | 104 | 97.1 | 85.1 | 55.9 | 95.6 | 99.7 | 95.4 | 100 | 67.5 | 113 | 101 | 89.4 | 49.1 | 35.1 | 101 | 103 | 104 | 77.6 | 9.8 | – | – | 0.365 | 1.56 | 1.17 |
| N[C@H](Cc1c[nH]cn1)C(=O)O [copper-histidine] | 0 | 0 | – | 0.1 | 0 | 110 | 98.7 | 103 | 104 | 89.3 | 106 | 102 | 107 | 98.8 | 107 | – | – | – | – | – | 105 | 94.4 | 84.8 | 82.1 | 99.5 | 101 | 96.1 | 95.8 | 97.3 | 97.3 | > 10 | – | > 10 | > 10 | > 10 |
| Cc1ncc(CSSCc2cnc(C)c(O)c2CO)c(CO)c1O [pyritinol] | 0 | 0 | – | 0 | 0 | 90 | 97.7 | 108 | 95.8 | 97.8 | 99.8 | 87.4 | 94.5 | 100 | 92.7 | – | – | – | – | – | 96.1 | 105 | 94.4 | 99.2 | 105 | 103 | 100 | 96.6 | 101 | 98.3 | > 10 | – | > 10 | > 10 | > 10 |
| CN(C)CC[C@@](O)(c1ccccc1)c1ccccc1Cl [clofedanol] | 0 | 1.8 | 0 | 0 | 0 | 93.7 | 97.1 | 101 | 94.2 | 113 | 93.4 | 89.6 | 103 | 95.8 | 72.5 | 104 | 96.5 | 99.5 | 88.9 | 101 | 101 | 106 | 102 | 101 | 96.4 | 99.2 | 98.1 | 92.7 | 102 | 100 | – | > 10 | > 10 | > 10 | > 10 |
| CN(C)CCCNC(=O)c1ccc(-c2cc(O)c3ncccc3c2)cc1 [ML324] | 3.2 | 1.4 | 2 | 0.9 | 0.4 | 88.7 | 103 | 88.2 | 104 | 35.7 | 107 | 94.3 | 107 | 91.7 | 80.6 | 98.5 | 100 | 96.2 | 101 | 58.1 | 105 | 93.8 | 106 | 94.1 | 83.4 | 105 | 98.9 | 107 | 98.5 | 85 | > 10 | – | > 10 | > 10 | 3.52 |
| CCOC(=O)CCNc1cc(N2CCc3ccccc3CC2)nc(-c2ccccn2)n1 [GSK-J4] | 3.4 | 8.6 | 2.3 | 4.7 | 6 | 103 | 103 | 97.8 | 104 | 33.5 | 93.2 | 88.2 | 104 | 70.9 | 17.4 | 93.9 | 101 | 91.7 | 96.8 | 63.2 | 103 | 89.5 | 96.5 | 97.5 | 21.2 | 97.8 | 97.6 | 99.3 | 94.8 | 5.5 | 1.28 | – | 2.93 | 2.74 | 3.45 |
